Measured values taken from patent publication US8435980B2 (AbbVie Inc., priority 2009, dated 2013).

These compounds were tested against T1, Cdc7 (BEV coexpressed huCDC7/DBF4) (Homo sapiens, UniProt O00311) (assay: Cdc7 enzyme inhibition assay ([33P]ATP, biotinylated peptide substrate, FlashPlate)). Details: Table 3; enzyme inhibition data (Ki).
T1 construct: made in house; host or cells: BEV (baculovirus expression vector) co-expression; insect cells are implied but no cell line is named
Format: biochemical
Procedure: Cdc7 (BEV coexpressed huCDC7/DBF4) is prepared internally. Cdc7 assays are conducted as follows with final concentrations as listed. […] Reactions are quenched after 1 hr by the addition of 90 μL stop buffer (50 mM EDTA, 2M NaCl). […] (Ki) for exemplary compounds.

T1 sequence (O00311 whole entry): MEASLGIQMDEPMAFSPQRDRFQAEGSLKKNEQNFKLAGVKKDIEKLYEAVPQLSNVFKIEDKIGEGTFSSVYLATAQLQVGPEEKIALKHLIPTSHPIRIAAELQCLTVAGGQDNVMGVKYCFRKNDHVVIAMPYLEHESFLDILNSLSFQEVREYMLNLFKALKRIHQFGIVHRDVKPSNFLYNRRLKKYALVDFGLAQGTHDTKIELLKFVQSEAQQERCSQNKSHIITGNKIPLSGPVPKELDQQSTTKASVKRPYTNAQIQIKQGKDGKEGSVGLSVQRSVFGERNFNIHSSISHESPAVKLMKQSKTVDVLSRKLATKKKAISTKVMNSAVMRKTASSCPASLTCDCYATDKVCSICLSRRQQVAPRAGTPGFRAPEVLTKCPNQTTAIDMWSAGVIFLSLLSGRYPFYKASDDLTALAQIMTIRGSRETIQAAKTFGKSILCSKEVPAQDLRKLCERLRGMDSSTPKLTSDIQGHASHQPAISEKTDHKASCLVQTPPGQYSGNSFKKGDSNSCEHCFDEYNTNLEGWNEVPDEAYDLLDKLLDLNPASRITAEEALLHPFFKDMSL
T1 sequence (Q9UBU7 whole entry partner): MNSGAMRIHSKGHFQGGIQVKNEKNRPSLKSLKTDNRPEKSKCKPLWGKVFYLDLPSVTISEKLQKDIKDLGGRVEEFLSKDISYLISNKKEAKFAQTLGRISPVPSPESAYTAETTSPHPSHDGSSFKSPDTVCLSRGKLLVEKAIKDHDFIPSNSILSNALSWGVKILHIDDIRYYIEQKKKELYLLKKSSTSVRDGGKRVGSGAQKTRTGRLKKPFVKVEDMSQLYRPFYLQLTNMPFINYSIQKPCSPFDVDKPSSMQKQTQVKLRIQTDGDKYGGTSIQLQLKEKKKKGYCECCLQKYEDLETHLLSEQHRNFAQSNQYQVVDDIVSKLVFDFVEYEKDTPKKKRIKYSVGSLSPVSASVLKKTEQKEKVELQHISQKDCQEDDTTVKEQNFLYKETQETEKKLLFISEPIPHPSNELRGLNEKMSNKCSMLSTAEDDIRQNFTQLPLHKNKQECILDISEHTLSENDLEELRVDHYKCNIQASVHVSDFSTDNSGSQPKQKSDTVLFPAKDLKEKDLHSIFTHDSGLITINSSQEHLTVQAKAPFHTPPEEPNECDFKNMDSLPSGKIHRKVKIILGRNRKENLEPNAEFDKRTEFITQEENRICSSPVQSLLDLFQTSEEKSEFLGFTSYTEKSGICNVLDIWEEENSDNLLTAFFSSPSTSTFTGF

SMILES	Ki [nM]
CN1CCC(C(=O)NC2CCCC(Nc3cc(-c4c[nH]c5ncccc45)cc(Cl)n3)C2)C1 (centres unmarked) [Example 346, N-(3-{[6-chloro-4-(1H-pyrrolo[2,3-b]pyridin-3-yl)pyridin-2-yl]amino}cyclohexyl)-1-methylpyrrolidine-3-carboxamide]	< 10
CN1CCC(C(=O)NC2CCCC(Nc3cc(-c4c[nH]c5ncccc45)cc(Cl)n3)C2)CC1 (centres unmarked) [Example 347, N-(3-{[6-chloro-4-(1H-pyrrolo[2,3-b]pyridin-3-yl)pyridin-2-yl]amino}cyclohexyl)-1-methylpiperidine-4-carboxamide]	< 10
CN1CCCC(C(=O)NC2CCCC(Nc3cc(-c4c[nH]c5ncccc45)cc(Cl)n3)C2)C1 (centres unmarked) [Example 348, N-(3-{[6-chloro-4-(1H-pyrrolo[2,3-b]pyridin-3-yl)pyridin-2-yl]amino}cyclohexyl)-1-methylpiperidine-3-carboxamide]	10 to 100
CN(C)C1(C(=O)NC2CCCC(Nc3cc(-c4c[nH]c5ncccc45)cc(Cl)n3)C2)CCC1 (centres unmarked) [Example 349, N-(3-{[6-chloro-4-(1H-pyrrolo[2,3-b]pyridin-3-yl)pyridin-2-yl]amino}cyclohexyl)-1-(dimethylamino)cyclobutanecarboxamide]	10 to 100
C[C@@H](C(=O)NC1CCCC(Nc2cc(-c3c[nH]c4ncccc34)cc(Cl)n2)C1)N(C)C (stereo partly drawn) [Example 350, N-(3-{[6-chloro-4-(1H-pyrrolo[2,3-b]pyridin-3-yl)pyridin-2-yl]amino}cyclohexyl)-N~2~,N~2~-dimethyl-L-alaninamide]	< 10
O=C(CNCCO)N[C@H]1CC[C@H](Nc2cc(-c3c[nH]c4ncccc34)cc(Cl)n2)CC1 [Example 352, N-(trans-4-{[6-chloro-4-(1H-pyrrolo[2,3-b]pyridin-3-yl)pyridin-2-yl]amino}cyclohexyl)-N~2~-(2-hydroxyethyl)glycinamide]	< 10
O=C1c2ccccc2C(=O)N1CCS(=O)(=O)NC1CCCC(Nc2cc(-c3c[nH]c4ncccc34)cc(Cl)n2)C1 (centres unmarked) [Example 353, N-(3-{[6-chloro-4-(1H-pyrrolo[2,3-b]pyridin-3-yl)pyridin-2-yl]amino}cyclohexyl)-2-(1,3-dioxo-1,3-dihydro-2H-isoindol-2-yl)ethanesulfonamide]	< 10
CC(C)(C)CNCC(=O)N[C@H]1CC[C@H](Nc2cc(-c3c[nH]c4ncccc34)cc(Cl)n2)CC1 [Example 355, N-(trans-4-{[6-chloro-4-(1H-pyrrolo[2,3-b]pyridin-3-yl)pyridin-2-yl]amino}cyclohexyl)-N~2~-(2,2-dimethylpropyl)glycinamide]	< 10
CCN(CCO)CC(=O)N[C@H]1CC[C@H](Nc2cc(-c3c[nH]c4ncccc34)cc(Cl)n2)CC1 [Example 356, N-(trans-4-{[6-chloro-4-(1H-pyrrolo[2,3-b]pyridin-3-yl)pyridin-2-yl]amino}cyclohexyl)-N~2~-ethyl-N~2~-(2-hydroxyethyl)glycinamide]	< 10
Clc1cc(-c2c[nH]c3ncccc23)cc(N[C@H]2CC[C@H](NC3CCNCC3)CC2)n1 [Example 357, trans-N-[6-chloro-4-(1H-pyrrolo[2,3-b]pyridin-3-yl)pyridin-2-yl]-N′-(piperidin-4-yl)cyclohexane-1,4-diamine]	< 10
O=C1c2ccccc2C(=O)N1CCS(=O)(=O)N[C@H]1CC[C@H](Nc2cc(-c3c[nH]c4ncccc34)cc(Cl)n2)CC1 [Example 358, N-(trans-4-{[6-chloro-4-(1H-pyrrolo[2,3-b]pyridin-3-yl)pyridin-2-yl]amino}cyclohexyl)-2-(1,3-dioxo-1,3-dihydro-2H-isoindol-2-yl)ethanesulfonamide]	< 10
Clc1cc(-c2c[nH]c3ncccc23)cc(NC2CCC(CC3CCC(NC4CCC4)CC3)CC2)n1 (centres unmarked) [Example 359, 6-chloro-N-(4-{[4-(cyclobutylamino)cyclohexyl]methyl}cyclohexyl)-4-(1H-pyrrolo[2,3-b]pyridin-3-yl)pyridin-2-amine]	< 10
O=C(CN1CCCCC1)Nc1cc(-c2c[nH]c3ncccc23)cc(Cl)n1 [Example 360, N-[6-chloro-4-(1H-pyrrolo[2,3-b]pyridin-3-yl)pyridin-2-yl]-2-(piperidin-1-yl)acetamide]	< 10
Clc1cc(-c2c[nH]c3ncccc23)cc(N[C@H]2CC[C@H](NC3CCN(C4CCC4)CC3)CC2)n1 [Example 361, trans-N-[6-chloro-4-(1H-pyrrolo[2,3-b]pyridin-3-yl)pyridin-2-yl]-N′-(1-cyclobutylpiperidin-4-yl)cyclohexane-1,4-diamine]	< 10
CC(C)(C)OC(=O)N1CCC(C2CCC(Nc3cc(-c4c[nH]c5ncccc45)cc(Cl)n3)CC2)CC1 (centres unmarked) [Example 362, tert-butyl 4-(4-{[6-chloro-4-(1H-pyrrolo[2,3-b]pyridin-3-yl)pyridin-2-yl]amino}cyclohexyl)piperidine-1-carboxylate]	10 to 100
CC(C)(C)OC(=O)N1CC(C(=O)N[C@H]2CC[C@H](Nc3cc(-c4c[nH]c5ncccc45)cc(Cl)n3)CC2)C1 [Example 364, tert-butyl 3-[(trans-4-{[6-chloro-4-(1H-pyrrolo[2,3-b]pyridin-3-yl)pyridin-2-yl]amino}cyclohexyl)carbamoyl]azetidine-1-carboxylate]	< 10

SMILES	Ki [nM]
O=C(C1CC1)N1CCC(C2CCC(Nc3cc(-c4c[nH]c5ncccc45)cc(Cl)n3)CC2)CC1 (centres unmarked) [Example 366, [4-(4-{[6-chloro-4-(1H-pyrrolo[2,3-b]pyridin-3-yl)pyridin-2-yl]amino}cyclohexyl)piperidin-1-yl](cyclopropyl)methanone]	< 10
O=C(N[C@H]1CC[C@H](Nc2cc(-c3c[nH]c4ncccc34)cc(Cl)n2)CC1)C1CCN(CCO)CC1 [Example 367, N-(trans-4-{[6-chloro-4-(1H-pyrrolo[2,3-b]pyridin-3-yl)pyridin-2-yl]amino}cyclohexyl)-1-(2-hydroxyethyl)piperidine-4-carboxamide]	< 10
O=C(NC1CCC(CC2CCC(Nc3cc(-c4c[nH]c5ncccc45)cc(Cl)n3)CC2)CC1)C1CC1 (centres unmarked) [Example 368, N-{4-[(4-{[6-chloro-4-(1H-pyrrolo[2,3-b]pyridin-3-yl)pyridin-2-yl]amino}cyclohexyl)methyl]cyclohexyl} cyclopropanecarboxamide]	< 10
CC(=O)N1CCC(NC2CCC(Nc3cc(-c4c[nH]c5ncccc45)cc(Cl)n3)CC2)CC1 (centres unmarked) [Example 369, 1-{4-[(4-{[6-chloro-4-(1H-pyrrolo[2,3-b]pyridin-3-yl)pyridin-2-yl]amino}cyclohexyl)amino]piperidin-1-yl}ethanone]	< 10
CS(=O)(=O)N1CCC(C2CCC(N(c3cc(-c4c[nH]c5ncccc45)cc(Cl)n3)S(C)(=O)=O)CC2)CC1 (centres unmarked) [Example 370, N-[6-chloro-4-(1H-pyrrolo[2,3-b]pyridin-3-yl)pyridin-2-yl]-N-{4-[1-(methylsulfonyl)piperidin-4-yl]cyclohexyl}methanesulfonamide]	10 to 100
CN1CCCC(C2CCC(Nc3cc(-c4c[nH]c5ncccc45)cc(Cl)n3)CC2)C1 (centres unmarked) [Example 371, 6-chloro-N-[4-(1-methylpiperidin-3-yl)cyclohexyl]-4-(1H-pyrrolo[2,3-b]pyridin-3-yl)pyridin-2-amine]	< 10
CN1CCCC(C2CCC(N(C)c3cc(-c4c[nH]c5ncccc45)cc(Cl)n3)CC2)C1 (centres unmarked) [Example 372, 6-chloro-N-methyl-N-[4-(1-methylpiperidin-3-yl)cyclohexyl]-4-(1H-pyrrolo[2,3-b]pyridin-3-yl)pyridin-2-amine]	< 10
O=C(NCCS(=O)(=O)N[C@H]1CC[C@H](Nc2cc(-c3c[nH]c4ncccc34)cc(Cl)n2)CC1)C1CC1 [Example 373, N-{2-[(trans-4-{[6-chloro-4-(1H-pyrrolo[2,3-b]pyridin-3-yl)pyridin-2-yl]amino}cyclohexyl)sulfamoyl]ethyl} cyclopropanecarboxamide]	< 10
OCCCNc1cc(-c2c[nH]c3ncccc23)cc(Cl)n1 [Example 374, 3-{[6-chloro-4-(1H-pyrrolo[2,3-b]pyridin-3-yl)pyridin-2-yl]amino}propan-1-ol]	< 10
Clc1cc(-c2c[nH]c3ncccc23)cc(NCCCN2CCOCC2)n1 [Example 375, 6-chloro-N-[3-(morpholin-4-yl)propyl]-4-(1H-pyrrolo[2,3-b]pyridin-3-yl)pyridin-2-amine]	10 to 100
Clc1cc(-c2c[nH]c3ncccc23)cc(NCCCn2ccnc2)n1 [Example 376, 6-chloro-N-[3-(1H-imidazol-1-yl)propyl]-4-(1H-pyrrolo[2,3-b]pyridin-3-yl)pyridin-2-amine]	< 10
OCCCCCNc1cc(-c2c[nH]c3ncccc23)cc(Cl)n1 [Example 377, 5-{[6-chloro-4-(1H-pyrrolo[2,3-b]pyridin-3-yl)pyridin-2-yl]amino}pentan-1-ol]	< 10
Clc1cc(-c2c[nH]c3ncccc23)cc(NCCc2cccnc2)n1 [Example 378, 6-chloro-N-[2-(pyridin-3-yl)ethyl]-4-(1H-pyrrolo[2,3-b]pyridin-3-yl)pyridin-2-amine]	< 10
NC1CCC(N2CCC(Nc3cc(-c4c[nH]c5ncccc45)cc(Cl)n3)CC2)CC1 (centres unmarked) [Example 379, N-[1-(4-aminocyclohexyl)piperidin-4-yl]-6-chloro-4-(1H-pyrrolo[2,3-b]pyridin-3-yl)pyridin-2-amine]	< 10
CN1CCC(C2CCC(N(C)c3cc(-c4c[nH]c5ncccc45)cc(Cl)n3)CC2)C1 (centres unmarked) [Example 380, 6-chloro-N-methyl-N-[4-(1-methylpyrrolidin-3-yl)cyclohexyl]-4-(1H-pyrrolo[2,3-b]pyridin-3-yl)pyridin-2-amine]	< 10
O=C(N[C@H]1CC[C@H](Nc2cc(-c3c[nH]c4ncccc34)cc(Cl)n2)CC1)C1CN(Cc2ccccc2)C1 [Example 381, 1-benzyl-N-(trans-4-{[6-chloro-4-(1H-pyrrolo[2,3-b]pyridin-3-yl)pyridin-2-yl]amino}cyclohexyl)azetidine-3-carboxamide]	< 10
